This is an account of results in patent US20240253033A1, “MICROFLUIDIC DETECTION SYSTEM WITH ADJUSTABLE FLOW CONTROL” (priority 2022, published 2024).

In data set [1] the test system is E coli MG1655. To be noted: E coli MG1655 spiked in urine. The protocol:
(§1) To obtain spiked human samples, first human urine was centrifuged at 5000 rcf for 5 minutes to remove large particles. It was subsequently spiked with 5×10^5 CFU ml^−1 and mixed with a solution of Resazurin to a final concentration of 0.02%. No antibiotics were added for the control aliquots, 32 μg/mL Ampicillin was added for resistant aliquots and 16 μg/mL Kanamycin was added for susceptible aliquots. The aliquots were incubated at 37° C. different periods starting from 0 minutes incubation till 60 minutes with a time step of 5 minutes.
(§2) According to the Infectious Diseases Society of America (IDSA), 105 CFU ml^−1 and 102 CFU ml^−1 were spiked in-vivo in urine, serum, and nasal swab of donors to simulate urinary tract infection, wound infection, and pneumonia by MRSA, respectively. Human urine was spiked with different concentrations of E. coli (FIG. 32D). As a control the healthy human biofluids were screened as received.

Data set [2] deals with K. pneumonia. The data set is described as follows: QolorAST minimum inhibitory concentration (MIC) test. The class given is cell-based, Klebsiella pneumoniae. The protocol:
(§3) Acinetobacter baumannii, Enterococcus faecalis, Enterococcus faecium, Streptococcus agalactiae, Enterobacter cloacae, Klebsiella pneumoniae, Streptococcus pneumoniae, E coli MG1655, and E coli Trimethoprim resistant were streaked on LB miller agar overnight at 37° C. and resuspended in water aliquot. Next, the bacterial concentration was determined using optical density technique. Subsequently, aliquots of different concentrations were prepared for the antibiotic susceptibility testing experiments in CamHB growth media.
(§4) 5×10^5 CFU ml^−1 Oxacillin-resistant S. aureus aliquots were prepared using resazurin/oxacillin solution using different concentrations of oxacillin antibiotic (16 μg/mL, 32 μg/mL, and 64 μg/mL). 5×10^5 CFU ml^−1 Cipro.
(§5) A minimum inhibitory concentration (MIC) was performed to study the QolorAST broad applicability in detecting bacterial resistance profiles and ensuring timely and efficient antimicrobial theraby. […] The antibiotics cover major bacterial inhibition mechanisms as inhibition of protein synthesis, cell wall synthesis, and/or DNA synthesis.
(§6) QolorAST exploited two methodologies: Manual MIC (MA-MIC) and support vector machine MIC (SVM-MIC). […] The SVM-MIC was carried out with a rbf kernel that was optimized and trained to predict the color change of the preclinical images using our library of bacteria images collected under different conditions including images where color is changed, color transitioning, and no color change. The SVM successfully classified the condition's bacteria-antibiotic in the concentration range studied.

The subject of data set [3] is A. baumannii. Described as above. The format is cell-based, Acinetobacter baumannii. To be noted: for MIC: both manually and through SVM. The protocol: as §3, §4, §5, §6
The test system of data set [4] is E. cloacae. Nature of the data set: Conventional broth microdilution (BMD) MIC. The class given is cell-based, Enterobacter cloacae. As for the experimental part:
(§7) For clinical MIC, bacteria were streaked on LB agar overnight and resuspended in a water aliquot. The aliquot was measured, and the bacteria concentration was adjusted to of 10^6 CFU ml^−1 in LB media. A 96 well plate with an antibiotic gradient from 128 μg/ml to 0.125 μg/ml in a 2-fold concentration dilution step was prepared with a positive control with no antibiotics. Next, the bacteria were introduced to each well of the 96 well plate for a final bacteria concentration of 5×10^5 CFU ml^−1. The well plates were cultured overnight the minimum inhibitory concentration was determined as the antibiotic concentration that didn't show any signs of bacterial growth.

Data set [5] has as its system S. pneumonia. Nature of the data set: Conventional broth microdilution (BMD) MIC. The format is cell-based, Streptococcus pneumoniae. The protocol:
as §7

The subject of data set [6] is K. pneumonia. Nature of the data set: Conventional broth microdilution (BMD) MIC. The class given is cell-based, Klebsiella pneumoniae. As for the experimental part: as §7
Data set [7] concerns E. cloacae. Nature of the data set: QolorAST minimum inhibitory concentration (MIC) test. The class given is cell-based, Enterobacter cloacae. As for the experimental part:
as §3, §4, §5, §6

The subject of data set [8] is E coli. The data set is described as follows: Phenotypic QolorAST rapid AST (resazurin reduction). The following applies: 10^5 cfu/mL E coli, antibiotic concentrations, 0-60 min. The class given is cell-based, Escherichia coli. As for the experimental part: (§8) Resistant E. coli, Oxacillin-resistant S. aureus, and Cipro. Resistant PA respectively was used. The aliquots were incubated at 37° C. different periods starting from 0 minutes incubation till 60 minutes with a time step of 5 minutes.
(§9) Resistant PA respectively was used. The aliquots were incubated at 37° C. different periods starting from 0 minutes incubation until 60 minutes with a time step of 5 minutes.
(§10) MRSA and PA respectively.

In data set [9] the test system is S. pneumonia. The data set is described as follows: QolorAST minimum inhibitory concentration (MIC) test. The format is cell-based, Streptococcus pneumoniae. The protocol:
as §3, §4, §5, §6

The test system of data set [10] is A. baumannii. Nature of the data set: Conventional broth microdilution (BMD) MIC. The format is cell-based, Acinetobacter baumannii. As for the experimental part: as §7
In data set [11] the test system is PA. The data set is described as follows: Conventional broth microdilution (BMD) MIC. The class given is cell-based, Pseudomonas aeruginosa. The protocol:
as §7

Data set [12] deals with PA. The data set is described as follows: QolorAST minimum inhibitory concentration (MIC) test. The format is cell-based, Pseudomonas aeruginosa. The protocol:
(§11) Ampicillin-resistant E. coli strain mm294 was cultured overnight at 37° C. in Luria broth (LB) media supplemented with 100 μg/mL Ampicillin. […] Next, the bacterial concentration was determined by optical density technique using a Spectronic 21D spectrophotometer. Subsequently, aliquots of different concentrations were prepared for the antibiotic susceptibility testing experiments in LB media. Biotyper spectra (MALDI Bruker).
as §4, §5, §6

Data set [13] relates to Pseudomonas aeruginosa. The data set is described as follows: Phenotypic QolorAST rapid AST (resazurin reduction). The format is cell-based. The following applies: 10^5 cfu/mL PA, antibiotic concentrations, 0-60 min. As for the experimental part: as §8, §9, §10
Data set [14] concerns E coli mm 294. Nature of the data set: QolorAST MIC test for E coli strains spiked in urine. The format is cell-based, Escherichia coli. The following applies: E coli mm 294 spiked in urine. As for the experimental part: as §1, §2
The test system of data set [15] is S. agalactiae. Nature of the data set: QolorAST minimum inhibitory concentration (MIC) test. The format is cell-based, Streptococcus agalactiae. As for the experimental part:
as §3, §4, §5, §6

The subject of data set [16] is MRSA. Nature of the data set: Conventional broth microdilution (BMD) MIC. The format is cell-based, Staphylococcus aureus. The protocol: as §7
The test system of data set [17] is MRSA. The data set is described as follows: QolorAST minimum inhibitory concentration (MIC) test. The class given is cell-based, Staphylococcus aureus. The protocol:
as §11, §4, §5, §6

Data set [18] deals with MRSA. The data set is described as follows: Phenotypic QolorAST rapid AST (resazurin reduction). The class given is cell-based, Staphylococcus aureus. The following applies: 10^5 cfu/mL MRSA, antibiotic concentrations, 0-60 min. The protocol:
as §8, §9, §10

In data set [19] the test system is S. agalactiae. Nature of the data set: Conventional broth microdilution (BMD) MIC. The format is cell-based, Streptococcus agalactiae. The protocol:
as §7

The test system of data set [20] is serum proteins. To be noted: human serum; cited from earlier work.

Values after ≈ are worked out from the molar mass of the structure shown. A value given as a limit tells only on which side of the number the result lay.

With `COc1cc(Cc2cnc(N)nc2N)cc(OC)c1OC` [Trimethoprim], in [1], the MIC is 0.312 mL⁻¹ and the “resistance profile based on the CLSI MIC cut off values” is “susceptible”.

With `CC1(C)S[C@@H]2[C@H](NC(=O)[C@H](N)c3ccccc3)C(=O)N2[C@H]1C(=O)O` [Ampicillin], the “MA-MIC/SVM-MIC/MIC Category” value in data set [2] was “R/R/R”; in data set [3] it was “R/R/R*”; in data set [7] it was “R/R/R”; in data set [9], “R/R/R*”. The QolorAST MIC Manual (MA-MIC) in [2], in data set [3], in [7] and in [9] was over 128 µg/mL in each case. The QolorAST MIC SVM (SVM-MIC) in data set [2] is 128 µg/mL; in [3] it was over 128 µg/mL; in [7], over 128 µg/mL; in [9], over 128 µg/mL. For the same compound, the “relative susceptibility from MIC values” in [2] is recorded as “enhanced susceptibility to ampicillin over colistin”. In data set [3], this compound came in with an MIC of over 128 µg/mL. In addition, the “Broth Microdilution MIC (MIC)” value in data set [4], in data set [5], in data set [6] and in data set [10] was over 128 throughout. Moreover, in [8], the “QolorAST colour readout over incubation” value is “consistent color change from blue to green”.

Consider Gentamicin, for which the “Broth Microdilution MIC (MIC)” value in [11] came out at 0.5. In data set [12], the “MA-MIC/SVM-MIC/MIC Category” value is “S/S/S*”, the MIC outcomes worked out at 0.5 µg/mL, the QolorAST MIC Manual (MA-MIC) was determined as 0.5 µg/mL and the QolorAST MIC SVM (SVM-MIC) was found to be 0.5 µg/mL. The “classification by clinical breakpoints” value in data set [12] is “susceptible”. Moreover, the “QolorAST colour readout over incubation” value in data set [13] is on record as “consistent blue color”.

On to `NC[C@H]1O[C@H](O[C@H]2[C@H](O)[C@@H](O[C@H]3O[C@H](CO)[C@@H](O)[C@H](N)[C@H]3O)[C@H](N)C[C@@H]2N)[C@H](O)[C@@H](O)[C@@H]1O` [Kanamycin], for which the MIC in [14] amounted to 8 µg/mL (≈ 16.5 µM).

On to `Cc1onc(-c2ccccc2)c1C(=O)N[C@@H]1C(=O)N2[C@@H]1SC(C)(C)[C@@H]2C(=O)O` [Oxacillin], for which, in data set [15], the “MA-MIC/SVM-MIC/MIC Category” value is recorded as “S/S/S*”, the QolorAST MIC Manual (MA-MIC) worked out at 0.125 µg/mL, the QolorAST MIC SVM (SVM-MIC) was found to be 0.125 µg/mL and the resistance or susceptibility entry is reported as “susceptible”. Also, the “Broth Microdilution MIC (MIC)” value in [16] turned out to be 64. In [17], the “MA-MIC/SVM-MIC/MIC Category” value was “R/R/R”, the QolorAST MIC Manual (MA-MIC) came out at 64 µg/mL, the QolorAST MIC SVM (SVM-MIC) was 64 µg/mL and the resistance or susceptibility entry is “resistance”. Moreover, in data set [18], the “QolorAST colour readout over incubation” value is reported as “consistent color change from blue to green”. Besides, the “Broth Microdilution MIC (MIC)” value in data set [19] was found to be 0.125. For the same compound, the “drug bounded to serum proteins” value in data set [20] is 93%.

Turning to `O=C(O)c1cn(C2CC2)c2cc(N3CCNCC3)c(F)cc2c1=O` [Ciprofloxacin], in [17], the QolorAST MIC Manual (MA-MIC) amounted to 1 µg/mL, the QolorAST MIC SVM (SVM-MIC) is 1 µg/mL and the resistance or susceptibility entry was “susceptibility”. Moreover, in [18], the “QolorAST colour readout over incubation” value was “consistent blue color”. Besides, in data set [13], the “QolorAST colour readout over incubation” value is reported as “consistent color change from blue to green”.

As to Colistin, the “MA-MIC/SVM-MIC/MIC Category” value is recorded as “R/R/R*” in [15]; “R/R/R” in data set [2]; “R/R/R” in [3]; “R/R/R” in data set [7]; “R/R/R*” in data set [9]. Besides, the QolorAST MIC Manual (MA-MIC) in data set [15] is 128 µg/mL; in [2], 8 µg/mL; in data set [3] it was 8 µg/mL; in data set [7] it was 4 µg/mL; in data set [9], over 128 µg/mL. The QolorAST MIC SVM (SVM-MIC) in [15] was over 128 µg/mL; in [2], 8 µg/mL; in data set [3] it was 8 µg/mL; in [7], 4 µg/mL; in data set [9], over 128 µg/mL. Besides, the resistance or susceptibility entry in [15] is reported as “resistant”. In data set [3], this compound showed an MIC of 8 µg/mL. The “Broth Microdilution MIC (MIC)” value in data set [4] was 4; in data set [5], over 128; in data set [6] it was 8; in data set [19] it was 128; in [10] it was 8.
